We go through eleven compounds from patent publication US20210070735A1, “RIP1 INHIBITORY COMPOUNDS AND METHODS FOR MAKING AND USING THE SAME” (Rigel Pharmaceuticals, Inc., priority 2019, published 2021).

The target of one assay is T1, human RIP1 (Homo sapiens, UniProt Q13546).
T1 construct: U937 and L929 cells were obtained from the American Type Culture Collection; host or cells: U937
T1 sequence (Q13546 1-671): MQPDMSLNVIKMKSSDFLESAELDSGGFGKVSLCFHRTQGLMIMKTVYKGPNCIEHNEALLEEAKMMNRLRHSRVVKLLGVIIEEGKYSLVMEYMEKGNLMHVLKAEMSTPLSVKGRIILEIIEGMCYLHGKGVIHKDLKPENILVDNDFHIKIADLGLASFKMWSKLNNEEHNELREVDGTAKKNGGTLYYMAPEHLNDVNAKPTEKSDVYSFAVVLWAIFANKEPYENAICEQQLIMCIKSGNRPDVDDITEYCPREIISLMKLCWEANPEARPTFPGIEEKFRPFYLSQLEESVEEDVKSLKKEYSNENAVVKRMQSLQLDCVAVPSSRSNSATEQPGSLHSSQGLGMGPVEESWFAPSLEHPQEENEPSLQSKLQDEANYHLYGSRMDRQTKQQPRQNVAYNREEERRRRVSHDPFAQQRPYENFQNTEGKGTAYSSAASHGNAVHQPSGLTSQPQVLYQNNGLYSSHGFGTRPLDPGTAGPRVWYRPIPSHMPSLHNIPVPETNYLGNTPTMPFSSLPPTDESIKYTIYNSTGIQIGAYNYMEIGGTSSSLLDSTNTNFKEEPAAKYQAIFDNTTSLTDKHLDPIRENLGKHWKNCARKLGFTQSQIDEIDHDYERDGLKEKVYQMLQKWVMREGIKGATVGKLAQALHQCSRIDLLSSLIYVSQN
Description: U937 cell necroptosis assay (TNFa + zVAD, CellTiter-Glo). In kind it is cell-based. As to conditions: U937 Zvad TNF CTG Recovery, U937 cells, TNFa 2 ng/mL + zVAD-fmk, 18 hours. How it is done:
(§1) In this example, U937 and L929 cells were exposed to compounds of the present disclosure and a cell necroptosis assay was conducted to evaluate the compounds' activity against human RIP1 and murine RIP1.
(§2) U937 and L929 cells were obtained from the American Type Culture Collection (Manassa, Va., USA). Both cells were maintained in logarithmic growth phase in complete RPMI 1640 media (Sigma, ST Louis, Mo., USA) supplemented with 10% fetal bovine serum (Sigma, ST Louis, Mo., USA) at 37° C. with 5% CO2. For necroptosis assay, L929 cells were plated for 18 h in 100 µL/well medium at 10K cells/well in Costar 96-well black clear-bottom plates (Fisher Scientific, Hampton, N.H., USA); U937 cells were plated on the day of the assay in 50 µL/well medium containing 60 uM zVAD-fmk (Lonza, Basel, Switzerland) at 50K cells/well. Medium from L929 cells were removed from the 96-well plates and replaced with 50 µL/well new medium containing 40 uM zVAD-fmk. Each compound of the present disclosure evaluated in this example was serially diluted in DMSO from 2.5 mM in 4-fold dilutions, and then diluted 1:125 in complete medium. 50 µL/well 2× of the compound was then added to the cells in the plates. The cells were pre-incubated with the compound for 1 hour at 37° C. with 5% CO2 and before addition of 10 µL/well 11×TNFa (Peprotech, Rocky Hill, N.J., USA) to give a final concentration of 2 ng/mL for TNFa. The relative amount of necroptosis cells was determined by luminescent using a Wallac Victor2 Luminometer (PerkinElmer, Waltham, Mass., USA) and a CellTiter-Glo® Luminescent Cell Viability Reagent Assay (Promega, Madison, Wis., USA) added per manufacturer instructions after 18 hours of TNFa stimulation at 37° C. with 5% CO2.Results from this example are summarized in Table 2. This example establishes that embodiments of the compounds described herein have unexpectedly potent activity against human RIP1 and murine RIP1, which allows their assessment in in vivo mouse models of disease.

A further assay concerns the target T2, RIPK1 (Homo sapiens, UniProt Q13546).
T2 sequence (Q13546 1-671): T1 sequence (Q13546 1-671)
Description: RIPK1 ADP-Glo biochemical kinase assay. As to conditions: 30 min at 30° C. How it is done:
The final reaction volume was 5.0 μl.
Adding 5 μl of ADP-Glo™ terminated the reaction.
On the technique in general: ADP-Glo turns the ADP formed in a reaction into a luminescent signal.

A further assay has as its target T3, murine RIP1 (Mus musculus, UniProt Q60855).
T3 construct: U937 and L929 cells were obtained from the American Type Culture Collection; host or cells: L929
T3 sequence (Q60855 1-656): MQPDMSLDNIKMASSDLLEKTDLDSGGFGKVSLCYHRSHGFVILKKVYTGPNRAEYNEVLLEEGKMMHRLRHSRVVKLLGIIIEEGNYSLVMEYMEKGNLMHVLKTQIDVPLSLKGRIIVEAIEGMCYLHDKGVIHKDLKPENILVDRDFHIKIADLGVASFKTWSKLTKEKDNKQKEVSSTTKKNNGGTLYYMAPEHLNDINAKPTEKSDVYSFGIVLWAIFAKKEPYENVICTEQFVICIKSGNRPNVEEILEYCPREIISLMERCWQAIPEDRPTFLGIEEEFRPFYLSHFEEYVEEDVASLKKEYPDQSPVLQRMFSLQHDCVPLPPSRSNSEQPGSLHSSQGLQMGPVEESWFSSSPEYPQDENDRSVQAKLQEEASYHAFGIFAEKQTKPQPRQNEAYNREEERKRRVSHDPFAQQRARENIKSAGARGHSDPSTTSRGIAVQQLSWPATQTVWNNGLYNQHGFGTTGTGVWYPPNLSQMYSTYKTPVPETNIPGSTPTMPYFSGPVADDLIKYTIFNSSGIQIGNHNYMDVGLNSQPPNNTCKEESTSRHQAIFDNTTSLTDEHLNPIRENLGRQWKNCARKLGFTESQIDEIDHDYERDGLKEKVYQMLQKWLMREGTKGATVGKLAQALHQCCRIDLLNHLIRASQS
Nature of the assay: L929 cell necroptosis assay (TNFa + zVAD, CellTiter-Glo). In kind it is cell-based. How it is done:
as §1, §2
A general note: In ATP-based viability assays light output follows the ATP content of the culture.

Turning to `CN1CCN(C(C)(C)C#Cc2ccc3c(c2)N(C)C(=O)[C@@H](NC(=O)c2cc(Oc4ccccc4)ccn2)CC3)CC1` [Compound I-37, (S)—N-(1-Methyl-8-(3-methyl-3-(4-methylpiperazin-1-yl)but-1-yn-1-yl)-2-oxo-2,3,4,5-tetrahydro-1H-benzo[b]azepin-3-yl)-4-phenoxypicolinamide], the results for the concentration for half-maximal inhibition (IC50) on human RIP1, on RIPK1 and on murine RIP1 were 21 nM, 12.7 nM and 1940 nM, respectively.

As to `CN1C(=O)C(NC(=O)c2n[nH]c(Cc3ccccc3)n2)CCc2ccc(C#Cc3ccncc3)cc21` (racemic) [Compound I-19, (±)-5-Benzyl-N-(1-methyl-2-oxo-8-(pyridin-4-ylethynyl)-2,3,4,5-tetrahydro-1H-benzo[b]azepin-3-yl)-1H-1,2,4-triazole-3-carboxamide], the IC50 – broadly, the concentration needed to halve the response being measured – on human RIP1 is 3.4 nM; against RIPK1, 42.7 nM; on murine RIP1, 10 nM.

Take `CN1C(=O)[C@@H](NC(=O)n2cc(Cc3ccc(F)cc3)cn2)CCc2ccc(C#CC3(O)CCOCC3)cc21` [Compound I-34, (S)-4-(4-Fluorobenzyl)-N-(8-((4-hydroxytetrahydro-2H-pyran-4-yl)ethynyl)-1-methyl-2-oxo-2,3,4,5-tetrahydro-1H-benzo[b]azepin-3-yl)-1H-pyrazole-1-carboxamide]: the IC50 was 0.4 nM on human RIP1, 26 nM on RIPK1 and 5.9 nM at murine RIP1.

Regarding `CN1C(=O)C(NC(=O)c2cc(Oc3ccccc3)ccn2)CCc2ccc(CN3CCN(c4ccncc4)CC3)cc21` (racemic) [Compound I-25, (±)-N-(1-Methyl-2-oxo-8-((4-(pyridin-4-yl)piperazin-1-yl)methyl)-2,3,4,5-tetrahydro-1H-benzo[b]azepin-3-yl)-4-phenoxypicolinamide], the values for the IC50 on human RIP1, on RIPK1 and on murine RIP1 were 278 nM, 68.9 nM and 37100 nM, respectively.

With `CC(C)(O)C#Cc1ccc2c(c1)NC(=O)[C@@H](NC(=O)c1cc(Oc3ccc(F)cc3)ccn1)CC2` [Compound I-35, (S)-4-(4-Fluorophenoxy)-N-(8-(3-hydroxy-3-methylbut-1-yn-1-yl)-2-oxo-2,3,4,5-tetrahydro-1H-benzo[b]azepin-3-yl)picolinamide], the IC50 on human RIP1 was 552 nM; against RIPK1, 73 nM; on murine RIP1, 1790 nM.

Take `O=C(NC1CCc2ccc(N3CC4(CCOCC4)C3)cc2NC1=O)c1n[nH]c(Cc2ccccc2)n1` (racemic) [Compound I-9, (±)-5-Benzyl-N-(2-oxo-8-(7-oxa-2-azaspiro[3.5]nonan-2-yl)-2,3,4,5-tetrahydro-1H-benzo[b]azepin-3-yl)-1H-1,2,4-triazole-3-carboxamide]: the IC50 at human RIP1 stood at 13.1 nM; against RIPK1 it was 414 nM; at murine RIP1, 30800 nM.

Turning to `CN1C(=O)[C@@H](NC(=O)c2n[nH]c(Cc3ccccc3)n2)CCc2ccc(N3CC4(CCOCC4)C3)cc21` [Compound I-17, (S)-5-Benzyl-N-(1-methyl-2-oxo-8-(7-oxa-2-azaspiro[3.5]nonan-2-yl)-2,3,4,5-tetrahydro-1H-benzo[b]azepin-3-yl)-1H-1,2,4-triazole-3-carboxamide], the figures for the IC50 at human RIP1, against RIPK1 and on murine RIP1 were 3.9 nM, 36.6 nM and 229 nM, respectively.

With `CN1C(=O)[C@@H](NC(=O)c2cc(Oc3ccccc3)ccn2)CCc2ccc(-c3ccc(C#CC(C)(C)O)nc3)cc21` [Compound I-2, (S)—N-(8-(6-(3-hydroxy-3-methylbut-1-yn-1-yl)pyridin-3-yl)-1-methyl-2-oxo-2,3,4,5-tetrahydro-1H-benzo[b]azepin-3-yl)-4-phenoxypicolinamide], the 50% inhibitory concentration (IC50) came out at 2 nM on human RIP1, 33.4 nM against RIPK1 and 142 nM on murine RIP1.

With `CN1C(=O)[C@@H](NC(=O)c2ccn(Cc3ccccc3)n2)CCc2ccc(C#CC(C)(C)C)cc21` [Compound I-33, (S)-1-Benzyl-N-(8-(3,3-dimethylbut-1-yn-1-yl)-1-methyl-2-oxo-2,3,4,5-tetrahydro-1H-benzo[b]azepin-3-yl)-1H-pyrazole-3-carboxamide], the IC50 on human RIP1 turned out to be 7.6 nM; against RIPK1, 54.6 nM; at murine RIP1, 30 nM.

With `CN1C(=O)[C@@H](NC(=O)n2cc(Cc3ccc(F)cc3)cn2)CCc2ccc(C#CC3(O)COC3)cc21` [Compound I-1, (S)-4-(4-fluorobenzyl)-N-(8-((3-hydroxyoxetan-3-yl)ethynyl)-1-methyl-2-oxo-2,3,4,5-tetrahydro-1H-benzo[b]azepin-3-yl)-1H-pyrazole-1-carboxamide], the IC50 came to 0.3 nM at human RIP1, 23.4 nM against RIPK1 and 2.4 nM on murine RIP1.

Regarding `CN1C(=O)C(NC(=O)c2cc(Oc3ccccc3)ccn2)CCc2ccc(N3CC4(CCCCC4)C3)cc21` (racemic) [Compound I-30, (±)-N-(1-Methyl-2-oxo-8-(2-azaspiro[3.5]nonan-2-yl)-2,3,4,5-tetrahydro-1H-benzo[b]azepin-3-yl)-4-phenoxypicolinamide], the values for the IC50 on human RIP1, on RIPK1 and at murine RIP1 were 16.2 nM, 603 nM and 1170 nM, respectively.
